{"source": "patent US10034893B2", "about": "“5, 6-D2 uridine nucleoside/tide derivatives” (priority 2013, dated 2018)", "tested_on": "HCV 1a genotype replicon (Huh-1a7 cell line, strain H77)", "assay": "HCV Replicon Assay qRT-PCR, genotype 1a", "format": "cell-based", "details": "Hepatitis C virus, read-out: 1a EC50", "excerpt": "HCV replicon cell lines (kindly provided by R. Bartenschlager) isolated from colonies as described by Lohman et al. (Lohman et al. (1999) Science 285: 110-113, expressly incorporated by reference in its entirety) and used for all experiments. One of the HCV replicon cell lines (strain Conl, genotype 1b) has the nucleic acid sequence set forth in EMBL Accession No.: AJ242651, the coding sequence of which is from nucleotides 1801 to 8406. Another replicon cell line (strain H77, genotype 1a) was constructed as described by Yi et. al. (Yi et. al. (2004) Journal of Virology 78(15):7904-15). […]\nEC50 values of single agent compounds were determined by HCV RNA detection using quantitative RT-PCR, according to the manufacturer's instructions, with a TAQMAN® One-Step RT-PCR Master Mix Reagents Kit (Cat#AB 4309169, Applied Biosystems) on an ABI Model 7500 thermocycler. EC50 values of combinations are similarly determined by HCV RNA detection using quantitative RT-PCR. The TAQMAN primers to use for detecting and quantifying HCV RNA obtained from Integrated DNA Technologies. HCV RNA is normalized to GAPDH RNA levels in drug-treated cells, which is detected and quantified using the Human GAPDH Endogenous Control Mix (Applied Biosystems, AB 4310884E). […] Chemical agent cytotoxicity is evaluated using an MTS assay according to the manufacturer's directions (Promega). […]", "note": "pEC50: −log10 of the molar value."}
{"smiles": "[2H]c1cn([C@@H]2O[C@H](CO[P@@](=O)(N[C@@H](C)C(=O)OC(C)C)Oc3ccccc3)C(O)C2(C)F)c(=O)[nH]c1=O", "note": "(stereo partly shown) [Example 1]", "values": [{"measurement": "pEC50", "result": "6.00 to 7.00"}]}
